# Measurements taken from US20240082238A1, “COMPOSITIONS AND METHODS FOR TREATING CANCER” (UNIVERSITY OF IOWA RESEARCH FOUNDATION, priority 2021, published 2024).
# Legend:
# LLC-PK1-WT cells = assay: Cytotoxicity assay (MTS), LLC-PK1-WT cells; type: cell-based, porcine; conditions: Sus scrofa; PTX alone, 72 h
# Method: Cytotoxicity assay. Hec50co cells were seeded at 1500 cells per well in 96-well plates for 24 h in a complete medium. Later, the medium was removed and PTX, CIP2b, or CIP (all dissolved in DMSO and diluted in complete medium) were added to cells as either monotherapies or in combinations, and the plates were incubated for 72 hours. Then, the complete medium was removed and MTS reagent in the complete medium was added to wells, and the plates were incubated for 1-4 hours according to the manufacturer's protocol. Finally, the absorbance was recorded at 490 nm using a Spectra Max plus 384 Microplate Spectrophotometer (Molecular Devices, Sunnyvale, CA). Percentage cell viability was expressed as the average absorbance of the test group relative to that of the control group (untreated cells). The concentration that inhibits proliferation of 50% of cells compared to control (IC50) was calculated using GraphPad Prism (La Jolla, CA). Synergism was detected following the Chou-Talalay method (CI<1 indicates synergism) (Chou T C. Cancer research. 2010; 70(2):440-6, doi: 10.1158/0008-5472.CAN-09-1947) using CompuSyn software (Ver. 1.0).
# P-gp efflux transporter. Overexpression of the MDR1 gene, reflected in the abundance of the P-gp efflux pump, is one of the major reasons for PTX chemoresistance in cancer. In this study, LLC-PK1-WT and LLC-PK1-MDR1 cell lines were used. […]
# Hec50co tumors = assay: Antitumor efficacy study, peritumoral SC injection; type: in vivo, athymic Nu/Nu mice
# Method: Antitumor efficacy study following subcutaneous injection (SC) at the tumor site (peritumoral). Female athymic Nu/Nu mice were subcutaneously challenged with Hec50co cells (1×10^6 cells/mouse). When mice had palpable tumors, they were randomly distributed into 3 groups: PBS group (n=3), PTX group (n=4), and PTX+CIP2b group (n=4). Then, treatments were administered subcutaneously near the tumor site (i.e., peritumorally) in five doses on days 26, 30, 33, 37, and 40 post-tumor challenge. Each dose consisted of 200 μL of either PBS, 5 mg/kg PTX (Paclitaxel concentrate diluted in DPBS), or 5 mg/kg PTX+5 mg/kg CIP2b (CIP2b in DPBS:Tween-80:ethanol 85:10:5; further dilution was made using DPBS). Body weights and tumor volumes (using Equation 2) were monitored twice a week for up to 2 weeks after the last dose (i.e., up to day 53 post-tumor challenge). On the last day of the study (day 53 post-tumor challenge), mice were euthanized, and tumors were collected and their weights were measured.
smiles,measurement,setting,value
"CC(=O)O[C@H]1C(=O)[C@@]2(C)[C@H]([C@H](OC(=O)c3ccccc3)[C@]3(O)C[C@H](OC(=O)[C@H](O)[C@@H](NC(=O)c4ccccc4)c4ccccc4)C(C)=C1C3(C)C)[C@]1(OC(C)=O)CO[C@@H]1C[C@@H]2O [PTX, paclitaxel]",IC50,LLC-PK1-WT cells,21.3 nM
same,average weight of tumors,"Hec50co tumors; day 53, SC treatment",did not show a significant difference against either the untreated group or the combination group
same,average tumor volumes vs PBS,"Hec50co tumors; day 53, 5 mg/kg PTX SC, five doses",smaller than PBS control mice albeit not significantly
